Source: publication PMC9138505, “Small Molecule 20S Proteasome Enhancer Regulates MYC Protein Stability and Exhibits Antitumor Activity in Multiple Myeloma” (Biomedicines, 2022)
Values joined by “and” are separate entries in the source; they are usually repeats but may differ in a detail not shown here. Identical values can stand only once.

Test system: RPMI-8226 cells
Test: Gene expression profiling, NanoString nCounter PanCancer Pathways Panel, ROSALIND analysis
Assay type: cell-based, human
Settings: RPMI-8226, TCH-165 samples 1-3
Experimental: RPMI-8226 cells were treated with vehicle or TCH-165 (10 μM) for 4 h. Total RNA was obtained using the mirVana miRNA Isolation Kit, with phenol (Thermofisher Scientific; AM1560; Waltham, MA, USA). Total RNA was quantified by Qubit (Thermofisher Scientific; Q32855; Waltham, MA, USA). and gene expression was evaluated against the nCounter® PanCancer Pathways Panel^TM according to the standard NanoString protocol.
Data were analyzed by ROSALIND® [36] with a hyperscale architecture developed by ROSALIND, Inc. (San Diego, CA, USA). Normalization, fold changes and p-values were calculated using criteria provided by NanoString. ROSALIND follows the nCounter® Advanced Analysis protocol of dividing counts within a lane by the geometric mean of the normalizer probes from the same lane. Housekeeping probes to be used for normalization are selected based on the geNorm algorithm, as implemented in the NormqPCR R library. Fold changes and p-values are calculated using the fast method as described in the nCounter Advanced Analysis 2.0 User Manual. The p-value adjustment is performed using the Benjamini–Hochberg method of estimating false discovery rates (FDR). Clustering of genes for the final heatmap of differentially expressed genes was done using the PAM (Partitioning Around Medoids) method using the fpc R library. Hypergeometric distribution was used to analyze the enrichment of pathways, gene ontology, domain structure and other ontologies. The topGO R library was used to determine local similarities and dependencies between GO terms in order to perform Elim pruning correction. Several database sources were referenced for enrichment analysis, including Interpro [40], NCBI [41], MSigDB [42, 43], REACTOME [44], WikiPathways. Enrichment was calculated relative to a set of background genes relevant to the experiment.

## CCOC(=O)[C@]1(c2ccccc2)N=C(c2ccc(OC)cc2)N(Cc2ccccc2)[C@@H]1c1ccc(NCc2ccccc2)cc1 [TCH-165]
  ABL1 normalized gene expression: 8.417 and 8.4055 and 8.194
  ACVR1B normalized gene expression: 5.827 and 5.592 and 5.805
  ACVR2A normalized gene expression: 6.629 and 6.427 and 6.2646
  AKT1 normalized gene expression: 9.563 and 9.727 and 9.565
  AKT2 normalized gene expression: 9.573 and 9.603 and 9.59
  AKT3 normalized gene expression: 5.86 and 5.739 and 5.506
  ALK normalized gene expression: 5.044 and 4.427 and 3.805
  AMH normalized gene expression: 4.488 and 4.27 and 3.291
  ANGPT1 normalized gene expression: 7.445 and 7.284 and 7.245
  APC normalized gene expression: 7.784 and 7.6193 and 7.522
  AR normalized gene expression: 4.723 and 4.093 and 4.653
  ARID1A normalized gene expression: 9.641 and 9.688 and 9.749
  ARNT2 normalized gene expression: 5.61 and 5.297 and 5.0068
  ATM normalized gene expression: 8.202 and 8.069 and 8.0531
  ATR normalized gene expression: 9.3284 and 9.349 and 9.258
  ATRX normalized gene expression: 10.3284 and 10.1666 and 10.2009
  AXIN1 normalized gene expression: 8.978 and 8.914 and 8.769
  AXIN2 normalized gene expression: 4.308 and 4.3768 and 4.39
  B2M normalized gene expression: 16.2154 and 16.1625 and 16.1882
  BAD normalized gene expression: 9.483 and 9.357 and 9.442
  BAIAP3 normalized gene expression: 6.488 and 5.962 and 5.926
  BAMBI normalized gene expression: 6.259 and 6.476 and 6.341
  BAP1 normalized gene expression: 8.78 and 8.732 and 8.643
  BAX normalized gene expression: 9.129 and 9.1412 and 9.225
  BCL2A1 normalized gene expression: 5.758 and 5.547 and 5.712
  BCL2L1 normalized gene expression: 10.1011 and 10.0891 and 10.0785
  BCL2 normalized gene expression: 9.695 and 9.7506 and 9.653
  BCOR normalized gene expression: 9.105 and 9.1915 and 9.017
  BDNF normalized gene expression: 5.044 and 4.739 and 5.0068
  BID normalized gene expression: 7.087 and 7.045 and 6.9095
  BIRC3 normalized gene expression: 5.924 and 5.759 and 5.5707
  BMP2 normalized gene expression: 5.259 and 4.7789 and 5.156
  BMP4 normalized gene expression: 3.86 and 2.891 and 3.0682
  BMP5 normalized gene expression: 5.758 and 5.124 and 4.653
  BMP6 normalized gene expression: 7.818 and 7.896 and 7.955
  BMP7 normalized gene expression: 8.639 and 8.544 and 8.563
  BMPR1B normalized gene expression: 5.53 and 5.476 and 5.592
  BNIP3 normalized gene expression: 9.175 and 9.079 and 9.173
  BRAF normalized gene expression: 8.142 and 7.966 and 8.109
  BRCA1 normalized gene expression: 10.3606 and 10.2785 and 10.3058
  BRCA2 normalized gene expression: 8.271 and 8.2205 and 8.187
  CACNA1C normalized gene expression: 4.649 and 4.029 and 4.291
  CACNA1D normalized gene expression: 7.445 and 7.37 and 7.163
  CACNA1E normalized gene expression: 5.723 and 5.124 and 4.876
  CACNA1G normalized gene expression: 4.649 and 4.093 and 4.483
  CACNA1H normalized gene expression: 5.259 and 4.3768 and 4.483
  CACNA2D1 normalized gene expression: 4.986 and 5.0613 and 5.2646
  CACNB2 normalized gene expression: 4.986 and 4.739 and 4.975
  CACNB3 normalized gene expression: 5.308 and 5.154 and 5.592
  CACNB4 normalized gene expression: 5.208 and 4.996 and 4.841
  CACNG1 normalized gene expression: 4.793 and 4.093 and 4.1271
  CACNG4 normalized gene expression: 6.629 and 6.927 and 6.75
  CALML3 normalized gene expression: 4.986 and 4.476 and 4.528
  CALML5 normalized gene expression: 4.924 and 3.739 and 3.291
  CAMK2B normalized gene expression: 5.156 and 4.029 and 4.1271
  CAPN2 normalized gene expression: 4.488 and 4.7789 and 4.653
  CASP3 normalized gene expression: 9.077 and 9.095 and 9.024
  CASP7 normalized gene expression: 7.9 and 7.832 and 7.858
  CASP8 normalized gene expression: 10.5065 and 10.4134 and 10.4228
  CASP9 normalized gene expression: 7.015 and 7.5638 and 7.592
  CASP10 normalized gene expression: 6.044 and 5.524 and 5.316
  CBL normalized gene expression: 6.94 and 6.657 and 6.805
  CBLC normalized gene expression: 2.723 and 1.891 and 3.0682
  CCNA1 normalized gene expression: 5.355 and 4.996 and 4.769
  CCNA2 normalized gene expression: 11.2764 and 11.2603 and 11.2666
  CCNB1 normalized gene expression: 12.2985 and 12.3229 and 12.3132
  CCND1 normalized gene expression: 7.343 and 7.069 and 7.218
  CCND2 normalized gene expression: 11.5762 and 11.5571 and 11.5967
  CCND3 normalized gene expression: 7.732 and 7.547 and 7.5547
  CCNE1 normalized gene expression: 7.001 and 7.297 and 7.31
  CCNE2 normalized gene expression: 8.015 and 7.524 and 7.638
  CCNO normalized gene expression: 5.156 and 4.093 and 4.0682
  CCR7 normalized gene expression: 3.723 and 3.817 and 3.483
  CD14 normalized gene expression: 5.53 and 5.402 and 5.437
  CD19 normalized gene expression: 4.571 and 4.476 and 4.184
  CD40 normalized gene expression: 6.86 and 6.729 and 6.901
  CDC6 normalized gene expression: 11.1861 and 11.1846 and 11.1724
  CDC7 normalized gene expression: 7.884 and 7.9093 and 7.845
  CDC14A normalized gene expression: 6.308 and 6.012 and 6.038
  CDC14B normalized gene expression: 5.86 and 5.891 and 6.0224
  CDC25A normalized gene expression: 8.686 and 8.482 and 8.39
  CDC25B normalized gene expression: 9.593 and 9.697 and 9.611
  CDC25C normalized gene expression: 8.406 and 8.5 and 8.492
  CDH1 normalized gene expression: 5.355 and 5.891 and 5.673
  CDK2 normalized gene expression: 8.944 and 8.829 and 8.792
  CDK4 normalized gene expression: 10.4105 and 10.495 and 10.3803
  CDK6 normalized gene expression: 9.974 and 9.747 and 9.87
  CDKN1A normalized gene expression: 7.714 and 7.882 and 7.792
  CDKN1B normalized gene expression: 7.835 and 7.891 and 7.722
  CDKN1C normalized gene expression: 7.81 and 7.789 and 7.581
